Measured values: patent US20090298055A1, “PRODUCTION OF PROTEINS” (Applied Research Systems ARS Holding S.A., priority 2004, published 2009)
Entries after “also recorded” stand apart in the source; their conditions may differ.

Key:
Format in all cases: cell-based, Chinese hamster
CHO AA8 cells [1] = assay: F-MTX staining and competition with antifolates (flow cytometry)
Description: (§1) F-MTX staining and competition with hydrophilic and lipophilic antifolates—Cells were seeded in 60-mm Petri dish and incubated for 8 hours at 37° C. in growth medium containing 2 μM fluorescein-MTX (F-MTX). Cells were then washed with PBS and subjected to competition with MTX and its lipophilic analogue TMQ. Following 3 hours of incubation, cells were detached by trypsinization, suspended in PBS containing 1% fetal calf serum and the residual green fluorescence per cell was determined using a flow cytometer (FACSCalibur, Becton-Dickinson) at an excitation of 488 nm and emission of 525 nm. Autofluorescence of unstained cells was routinely recorded.

CHO-S R0.15 cells = assay: as above; settings: for concentration for complete displacement of F-MTX: 2 μM F-MTX, 3 hours competition
Description: as §1

CHO-S cells [2] = assay: as above; settings: 2 μM F-MTX, 3 hours competition
Description: as §1

[3] = test system: CHO AA8 C4R0.15 and CHO AA8 C5R0.15 cells; assay: as above; settings: CHO AA8 C4R0.15 and C5R0.15 cells
Description: as §1

[4] = test system: hRFC and hRFC-HA CHO AA8 C5R0.15 transfectants; assay: MTX growth inhibition assay
Description: (§2) Cell growth inhibition by antifolates—For antifolate cell growth inhibition, cells (10^4/well) were seeded in 24-well plates in the respective growth medium (AA8 and derivatives in RPMI+10% FCS, and CHO-S cells in CD-CHO) containing various concentrations of MTX or the lipophilic antifolates, trimeterxate (Dr. David Fry, Warner-Lambert, Parke-Davis, Detroit, Mich.) and incubated for 3 days at 37° C. Thereafter, cells were detached by trypsinization and the number of viable cells was determined using trypan blue exclusion. The 50% inhibitory concentration (IC50) is defined as the drug concentration at which cell growth is inhibited by 50% relative to untreated controls.
(§3) Cell growth assays and inhibition by antifolates—as described in Example 2, hereinabove.

[5] = test system: parental CHO AA8 C5 cells (RFC deficient); assay: MTX growth inhibition assay; settings: Cricetulus griseus, 72 h, 3 days
Description: as §2, §3

[6] = test system: CHO-S-R0.12 cells (selected in 120 nM MTX); assay: [3H]-MTX transport assay; settings: 2 μM [3H]-MTX, 3 minutes
Description: (§4) [^3H]-MTX transport—In order to determine the ability of the antifolate-resistant clones to take up antifolates the influx rates of [^3H]-MTX were measured and compared to the control CHO AA8 cells. Cells (2×10^7) from the mid-log phase of growth were washed three times in transport buffer consisting of HEPES-buffered saline solution (HBSS, Rothem et al., 2002) and incubated for 3 minutes at 37° C. in the presence of HBSS (1 ml suspensions) containing 2 μM [^3H]-MTX. Transport controls contained a 500-fold excess (1 mM) of unlabeled MTX. The transport of [^3H]-MTX was stopped by the addition of 10 ml of ice-cold HBSS. The cell suspension was then centrifuged for 5 minutes at 4° C. using a centrifugation speed of 500×g, following which the cell pellet was washed twice with 10 ml of ice-cold transport buffer. The final cell pellet was suspended in water and processed for scintillation counting.

[7] = test system: CHO AA8 C4 R0.15 and C5 R0.15 cell lines; assay: [3H]-MTX transport assay; settings: 2 μM [3H]-MTX, 3 minutes
Description: as §4

[8] = test system: CHO-S-R0.04 cells (selected in 40 nM MTX); assay: [3H]-MTX transport assay; settings: 2 μM [3H]-MTX, 3 minutes
Description: as §4

CHO AA8 cells [9] = assay: Cell growth inhibition by lipophilic antifolates; settings: Cricetulus griseus; printed after 'CHO AA8 counterpart', data not shown
Description: as §2

[10] = test system: MTX-resistant CHO AA8 C4R0.15 and C5R0.15 cells; assay: Cell growth inhibition by lipophilic antifolates; settings: data not shown
Description: as §2

[11] = test system: CHO-S R0.15 cells (RFC deficient); assay: Cell growth inhibition by antifolates (trypan blue exclusion, 3 days)
Description: as §2

CHO-S cells [12] = assay: as above; settings: Cricetulus griseus, 72 h, read-out: 50% inhibition of cell growth (IC50)
Description: as §2

Row | Compound | concentration resulting in complete loss of F-MTX fluorescence (CHO AA8 cells [1]) [nM] | concentration for complete displacement of F-MTX (CHO-S R0.15 cells) [nM] | loss of cellular F-MTX staining (CHO-S R0.15 cells; competition with 100 nM MTX) | concentration at which cells completely lost their F-MTX staining (CHO-S cells [2]) [nM] | concentration required to completely displace F-MTX fluorescence [3] [µM] | IC50 ([4]; Cricetulus griseus, CHO-AA8, 72 h, hRFC and hRFC-HA transfectants, 3 days) [µM] | increase in MTX sensitivity ([4]; RFC and RFC-HA transfectants vs C5R0.15 cells) [fold] | IC50 [5] [µM] | loss of control CHO-S transport activity [6] [%] | loss of MTX uptake relative to control AA8 cells [7] | loss of control CHO-S transport activity [8] [%] | IC50 (CHO AA8 cells [9]) [µM] | hypersensitivity compared to CHO AA8 counterpart [10] [fold] | concentration resulting in complete loss of F-MTX fluorescence (CHO-S cells [2]) [nM] | IC50 ([11]; Cricetulus griseus, 72 h, CHO-S R0.15 cells, read-out: 50% inhibition of cell growth (IC50)) [µM] | hypersensitivity of CHO-SR0.15 cells as compared with parental CHO cells ([11]; ratio of 50% inhibitory concentrations) [fold] | IC50 (CHO-S cells [12]) [µM]
1 | CN(Cc1cnc2nc(N)nc(N)c2n1)c1ccc(C(=O)N[C@@H](CCC(=O)O)C(=O)O)cc1 [MTX, methotrexate] | 30 | 1000 | did not result in any loss; also recorded: Retention of F-MTX fluorescence | 100 | 3 | 0.027 to 0.029 | 100 | ~3 | 96.4 | 90-91% | 92.5 |  |  |  |  |  | 
2 | COc1ccc(OC)c(Cc2cnc3nc(N)nc(N)c3c2C)c1 [PTX, piritrexim] |  |  |  |  |  |  |  |  |  |  |  | ~0.008 | > 3 |  |  |  | 
3 | COc1cc(NCc2ccc3nc(N)nc(N)c3c2C)cc(OC)c1OC [TMQ, Trimetrexate] |  | 10 |  |  |  |  |  |  |  |  |  | ~0.006 | > 5 | 10 | 0.01 | 8 | ~0.04
